# From PubChem BioAssay AID328 (DTP/NCI, 2004)
# Where “and” joins values, the source holds several entries; their conditions need not be identical. Identical values can stand only once. Inconclusive results and toxic doses are left out.
# Tested on: BDF1 mice, P388 leukemia ip, median survival T/C
# Test: NCI In Vivo Anticancer Drug Screen. Data for tumor model P388 Leukemia (intraperitoneal) in B6D2F1 (BDF1) mice
# Conditions: endpoint: median survival time, higher = longer survival
# Method in brief: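 Transplantable tumour in mice; compound vs vehicle dosing; survival scored; ratio of treated to control reported.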
# [1] = dose: 3.0 mg/kg/injection, schedule: Q01DX009 (ip), vehicle: Klucel (hydroxypropylcellulose) (HPC)
# [2] = dose: 50.0 mg/kg/injection, schedule: Q01DX009 (ip), vehicle: Klucel (hydroxypropylcellulose) (HPC)
# [3] = dose: 100.0 mg/kg/injection, schedule: Q04DX003 (ip), vehicle: Klucel (hydroxypropylcellulose) (HPC)
# [4] = dose: 200.0 mg/kg/injection, schedule: Q04DX003 (ip), vehicle: Klucel (hydroxypropylcellulose) (HPC)
# [5] = dose: 25.0 mg/kg/injection, schedule: Q01DX009 (ip), vehicle: water
# [6] = dose: 50.0 mg/kg/injection, schedule: Q01DX009 (ip), vehicle: water
# [7] = dose: 50.0 mg/kg/injection, schedule: Q04DX003 (ip), vehicle: water
# [8] = dose: 100.0 mg/kg/injection, schedule: Q01DX009 (ip), vehicle: water
# [9] = dose: 100.0 mg/kg/injection, schedule: Q04DX003 (ip), vehicle: water
# [10] = dose: 200.0 mg/kg/injection, schedule: Q04DX003 (ip), vehicle: water
# [11] = dose: 100.0 mg/kg/injection, schedule: Q04DX003 (ip), vehicle: saline with Tween-80
# [12] = dose: 200.0 mg/kg/injection, schedule: Q01DX009 (ip), vehicle: saline with Tween-80
# [13] = dose: 200.0 mg/kg/injection, schedule: Q04DX003 (ip), vehicle: saline with Tween-80
# [14] = dose: 400.0 mg/kg/injection, schedule: Q01DX009 (ip), vehicle: saline with Tween-80
# [15] = dose: 50.0 mg/kg/injection, schedule: Q01DX009 (ip), vehicle: saline with Tween-80
# [16] = dose: 100.0 mg/kg/injection, schedule: Q01DX009 (ip), vehicle: saline with Tween-80
# [17] = dose: 50.0 mg/kg/injection, schedule: Q04DX003 (ip), vehicle: Klucel (hydroxypropylcellulose) (HPC)
smiles,measurement,setting,value
COCCOC(C)C(=O)C(O)S(=O)(=O)O (stereo not drawn),T/C,"dose: 132.0 mg/kg/injection, schedule: Q01DX009 (ip), vehicle: saline",150 % of control
same,T/C,"dose: 200.0 mg/kg/injection, schedule: Q01DX009 (ip), vehicle: saline",155 % of control
same,T/C,"dose: 300.0 mg/kg/injection, schedule: Q01DX009 (ip), vehicle: saline",155 % of control
CC1CCC[N-]C1.CC1CCC[N-]C1.CC1CCC[N-]C1.CC1CCC[N-]C1.[Cl][Rh][Cl] (stereo not drawn),T/C,[1],162 % of control
Nc1cc(N)cc(Cc2ccccc2)c1,T/C,[2],112 % of control
same,T/C,"dose: 100.0 mg/kg/injection, schedule: Q01DX009 (ip), vehicle: Klucel (hydroxypropylcellulose) (HPC)",116 % of control
same,T/C,"dose: 200.0 mg/kg/injection, schedule: Q01DX009 (ip), vehicle: Klucel (hydroxypropylcellulose) (HPC)",116 % of control
O=C1/C(=C/c2cccc([N+](=O)[O-])c2)CCc2ccccc21,T/C,[3],100 % of control
same,T/C,[4],100 % of control
same,T/C,"dose: 400.0 mg/kg/injection, schedule: Q01DX009 (ip), vehicle: Klucel (hydroxypropylcellulose) (HPC)",104 % of control
same,T/C,"dose: 400.0 mg/kg/injection, schedule: Q04DX003 (ip), vehicle: Klucel (hydroxypropylcellulose) (HPC)",95 % of control
Cc1cc(=O)c2cc(N(C)C)ccc2[nH]1,T/C,"dose: 0.78 mg/kg/injection, schedule: Q01DX009 (ip), vehicle: water",110 % of control
same,T/C,"dose: 1.56 mg/kg/injection, schedule: Q01DX009 (ip), vehicle: water",100 % of control
same,T/C,"dose: 3.12 mg/kg/injection, schedule: Q01DX009 (ip), vehicle: water",101 % of control
same,T/C,"dose: 6.25 mg/kg/injection, schedule: Q01DX009 (ip), vehicle: water",93 % of control
same,T/C,"dose: 12.5 mg/kg/injection, schedule: Q01DX009 (ip), vehicle: water",94 % of control and 116 % of control
same,T/C,[5],114 % of control
same,T/C,[6],91 % of control
same,T/C,[7],95 % of control
same,T/C,[8],107 % of control
same,T/C,[9],103 % of control
same,T/C,[10],103 % of control
same,T/C,"dose: 400.0 mg/kg/injection, schedule: Q01DX009 (ip), vehicle: water",86 % of control
same,T/C,"dose: 400.0 mg/kg/injection, schedule: Q04DX003 (ip), vehicle: water",96 % of control
C#CCCC#C,T/C,"dose: 50.0 mg/kg/injection, schedule: Q04DX003 (ip), vehicle: saline with Tween-80",100 % of control
same,T/C,"dose: 67.0 mg/kg/injection, schedule: Q01DX005 (ip), vehicle: saline with Tween-80",96 % of control
same,T/C,"dose: 100.0 mg/kg/injection, schedule: Q01DX005 (ip), vehicle: saline with Tween-80",115 % of control
same,T/C,[11],104 % of control
same,T/C,"dose: 150.0 mg/kg/injection, schedule: Q01DX005 (ip), vehicle: saline with Tween-80",92 % of control
same,T/C,[12],103 % of control
same,T/C,[13],108 % of control
same,T/C,[14],111 % of control
O=C1/C(=C/c2ccco2)CC2CCCCC12 (stereo not drawn),T/C,[2],104 % of control
same,T/C,"dose: 75.0 mg/kg/injection, schedule: Q01DX001 (ip), vehicle: other",100 % of control
same,T/C,"dose: 75.0 mg/kg/injection, schedule: Q01DX009 (ip), vehicle: Klucel (hydroxypropylcellulose) (HPC)",113 % of control
same,T/C,"dose: 150.0 mg/kg/injection, schedule: Q01DX001 (ip), vehicle: other",104 % of control
same,T/C,"dose: 150.0 mg/kg/injection, schedule: Q01DX009 (ip), vehicle: Klucel (hydroxypropylcellulose) (HPC)",100 % of control
Cn1nc(NC(=O)C(F)(F)F)c2nccnc21,T/C,[11],100 % of control
same,T/C,[13],100 % of control
same,T/C,"dose: 400.0 mg/kg/injection, schedule: Q04DX003 (ip), vehicle: saline with Tween-80",100 % of control
CCN(CC)CCCC(C)Nc1c2ccc(C)cc2nc2ccc(OC)cc12 (stereo not drawn),T/C,[15],123 % of control
CCOC(=O)C1(C)C=C(Nc2ccc(OC)cc2)C(=O)N1c1ccc(OC)cc1 (stereo not drawn),T/C,"dose: 6.25 mg/kg/injection, schedule: Q01DX009 (ip), vehicle: saline with Tween-80",104 % of control
same,T/C,"dose: 12.5 mg/kg/injection, schedule: Q01DX009 (ip), vehicle: saline with Tween-80",100 % of control
same,T/C,"dose: 25.0 mg/kg/injection, schedule: Q01DX009 (ip), vehicle: saline with Tween-80",100 % of control
same,T/C,[15],95 % of control
COc1ccc(C(=O)CC(C#N)c2ccc(OC)c(OC)c2)cc1OC (stereo not drawn),T/C,[16],100 % of control
same,T/C,[12],100 % of control
same,T/C,[14],95 % of control
CCN(CC)N=Nc1ccccc1-c1nc(N)c2ccccc2n1,T/C,[17],157 % of control
same,T/C,[3],161 % of control
same,T/C,[4],180 % of control
N=C(N)c1ccc(C(=N)N)cc1,T/C,[5],100 % of control
same,T/C,[6],94 % of control
same,T/C,[7],95 % of control
same,T/C,[8],100 % of control
same,T/C,[9],100 % of control
same,T/C,[10],100 % of control
C1CC[N-]CC1.C1CC[N-]CC1.[Cl][Pt+2]([Cl])([Cl])[Cl],T/C,[16],95 % of control
same,T/C,[12],90 % of control
C[N+](C)(C)CCCSC1=NCCN1,T/C,"dose: 6.25 mg/kg/injection, schedule: Q01DX009 (ip), vehicle: saline",106 % of control
same,T/C,"dose: 12.5 mg/kg/injection, schedule: Q01DX009 (ip), vehicle: saline",107 % of control
same,T/C,"dose: 25.0 mg/kg/injection, schedule: Q01DX009 (ip), vehicle: saline",103 % of control
COc1cc2c(c(OC)c1OC)-c1ccc(SCc3ccccc3)c(=O)cc1[C@@H](NC(C)=O)CC2,T/C,"dose: 8.2 mg/kg/injection, schedule: Q01DX009 (ip), vehicle: Klucel (hydroxypropylcellulose) (HPC)",117 % of control
same,T/C,"dose: 12.5 mg/kg/injection, schedule: Q01DX009 (ip), vehicle: Klucel (hydroxypropylcellulose) (HPC)",170 % of control
CC(CC(C)(C)C)C(=O)CCC(C)(C)C (stereo not drawn),T/C,"dose: 100.0 mg/kg/injection, schedule: Q01DX001 (ip), vehicle: saline with Tween-80",104 % of control
same,T/C,"dose: 200.0 mg/kg/injection, schedule: Q01DX001 (ip), vehicle: saline with Tween-80",100 % of control
same,T/C,"dose: 400.0 mg/kg/injection, schedule: Q01DX001 (ip), vehicle: saline with Tween-80",109 % of control
Cc1ccc([I+]c2ccc(C)cc2C)c(C)c1,T/C,"dose: 0.19 mg/kg/injection, schedule: Q01DX009 (ip), vehicle: Klucel (hydroxypropylcellulose) (HPC)",90 % of control
same,T/C,"dose: 0.39 mg/kg/injection, schedule: Q01DX009 (ip), vehicle: Klucel (hydroxypropylcellulose) (HPC)",90 % of control
same,T/C,"dose: 0.78 mg/kg/injection, schedule: Q01DX009 (ip), vehicle: Klucel (hydroxypropylcellulose) (HPC)",100 % of control
same,T/C,"dose: 1.17 mg/kg/injection, schedule: Q04DX003 (ip), vehicle: Klucel (hydroxypropylcellulose) (HPC)",104 % of control
same,T/C,"dose: 1.5 mg/kg/injection, schedule: Q01DX009 (ip), vehicle: Klucel (hydroxypropylcellulose) (HPC)",90 % of control
same,T/C,"dose: 1.56 mg/kg/injection, schedule: Q01DX009 (ip), vehicle: Klucel (hydroxypropylcellulose) (HPC)",87 % of control
same,T/C,"dose: 2.34 mg/kg/injection, schedule: Q04DX003 (ip), vehicle: Klucel (hydroxypropylcellulose) (HPC)",108 % of control
same,T/C,[1],100 % of control and 103 % of control
same,T/C,"dose: 4.68 mg/kg/injection, schedule: Q04DX003 (ip), vehicle: Klucel (hydroxypropylcellulose) (HPC)",113 % of control
same,T/C,"dose: 6.0 mg/kg/injection, schedule: Q01DX009 (ip), vehicle: Klucel (hydroxypropylcellulose) (HPC)",103 % of control
same,T/C,"dose: 6.6 mg/kg/injection, schedule: Q04DX003 (ip), vehicle: Klucel (hydroxypropylcellulose) (HPC)",100 % of control
same,T/C,"dose: 10.0 mg/kg/injection, schedule: Q04DX003 (ip), vehicle: Klucel (hydroxypropylcellulose) (HPC)",113 % of control
same,T/C,"dose: 12.0 mg/kg/injection, schedule: Q04DX003 (ip), vehicle: Klucel (hydroxypropylcellulose) (HPC)",100 % of control
same,T/C,"dose: 12.5 mg/kg/injection, schedule: Q04DX003 (ip), vehicle: Klucel (hydroxypropylcellulose) (HPC)",103 % of control
same,T/C,"dose: 25.0 mg/kg/injection, schedule: Q04DX003 (ip), vehicle: Klucel (hydroxypropylcellulose) (HPC)",100 % of control
same,T/C,[17],91 % of control
